What was measured:
[1] = target: T1, TRPV1-expressing cardiac afferents (Rattus norvegicus, UniProt O35433); assay: TRPV1 immunofluorescence in cardiac nerve endings after epicardial RTX; assay type: in vivo
T1 construct: from tissue; host or cells: cardiac (epicardial) nerve endings of male Sprague-Dawley rats, in vivo
Procedure: (§1) In order to desensitize cardiac sympathetic afferents in rats, resiniferatoxin (RTX, 1 mg; Sigma Aldrich) was dissolved in 2 ml of ethanol and mixed with 18 ml of Tween in isotonic saline. RTX (50 μg/ml) was applied twice on the entire left and right ventricles with a swab just prior to coronary ligation. The dose of RTX was determined by preliminary experiments in which we found nearly complete ablation of TRPV1-expressing cardiac nerve endings on the surface of the rat heart for more than 10 weeks. Rat surgery was performed 9-11 weeks post-MI. Rats were anesthetized with urethane (800 mg/kg ip) and α-chloralose (40 mg/kg ip). Renal sympathetic nerve activity (RSNA) and cardiac sympathetic nerve activity (CSNA) were recorded for evaluating basal renal and cardiac sympathetic tone.
More specifically, we examined TRPV1 protein expression in cardiac nerve endings from vehicle and RTX-treated rats using immunofluorescence. Experiments were performed on male Sprague-Dawley rats weighing −400 to −500 g. […] Cardiac function in all experimental animals was measured 2 and 6 weeks after MI by echocardiography (VEVO 770, Visual Sonics, Inc.) as described in (Wang et al., J. Appl. Physiol. 2010; 108:1365-1375; Wang et al. 2, Am. J. Physiol. Regul. Integr. Comp. Physiol. 2012; 320:R1260-R1270; and Wang et al. 3, J. Physiol. 2010; 588:5033-5047). […]

[2] = test system: sham and CHF rats (coronary artery ligation); assay: Hemodynamic, morphological and echocardiographic measurements in sham and CHF rats; assay type: in vivo, rat; conditions: for DAP: diastolic arterial pressure; for HR: heart rate; for HW/BW: heart weight/body weight; for LVEDP: left ventricle end-diastolic pressure; for MAP: mean arterial pressure; for SAP: systolic arterial pressure; for WLW/BW: wet lung weight/body weight
Procedure: as §1
More specifically, we examined TRPV1 protein expression in cardiac nerve endings from vehicle and RTX-treated rats using immunofluorescence. Experiments were performed on male Sprague-Dawley rats weighing […]. In brief, terminal experiments were carried out 9-11 weeks after MI in rats treated with either RTX or vehicle. These experiments were approved by the Institutional Animal Care and Use Committee of the University of Nebraska Medical Center and carried out under the guidelines of the National Institutes of Health Guide for the Care and Use of Laboratory Animals. Heart failure was produced by coronary artery ligation as described in (Wang et al., J. Appl. Physiol. 2010; 108:1365-1375; and Wang et al. 2, Am. J. Physiol. Regul. Integr. Comp. Physiol. 2012; 320:R1260-R1270). Cardiac function in all experimental animals was measured 2 and 6 weeks after MI by echocardiography (VEVO 770, Visual Sonics, Inc.) as described in (Wang et al., J. Appl. Physiol. 2010; 108:1365-1375; Wang et al. 2, Am. J. Physiol. Regul. Integr. Comp. Physiol. 2012; 320:R1260-R1270; and Wang et al. 3, J. Physiol. 2010; 588:5033-5047).
This example illustrates an effect of RTX on body weight, organ weight, and hemodynamics in sham and CHF rats.

[3] = test system: non-infarcted LV and IVS walls of sham and CHF rats; assay: Cardiac fibrosis: picrosirius red staining and western blot of fibrotic markers; assay type: in vivo, rat
From the text: This example illustrates the effects of RTX on cardiac fibrosis in sham and CHF rats. Considering that RTX-mediated reduction in LVEDP in CHF rats may be related to an improvement in cardiac compliance, we further evaluated cardiac fibrosis using picrosirus red staining and protein expression of two fibrotic markers (a smooth muscle actin and fibronectin) as well as their upstream activator, transforming growth factor (TGF) β receptor I in the non-infarcted LV and inter-ventricular septum (IVS) walls from sham and CHF rats treated with either vehicle or RTX. For histopathology, the rat heart was fixed in 10% phosphate buffered formalin, embedded in paraffin, and cut into 10 μm serial sections from apex to base. Picrosirius red staining was performed to detect myocardial fibrosis. Immunohistochemistry staining of cleaved caspase 3 (CC3) was also performed in paraffin sections from the same heart tissues which were used for picrosirius red staining experiments.

post MI rats = assay: Long-term survival of post MI rats; assay type: in vivo, rat
From the text: This example illustrates effects of RTX on the long-term survival rate of post MI rats. […] Over a 6 month period over 50% of vehicle—treated rats died. This contrasts with under 20% of RTX treated—rats.

[4] = test system: infarcted heart / CSAR activation; assay: Cardiac plasma extravasation (Evans Blue area); assay type: in vivo, rat
From the text: (§2) This example illustrates local anti-inflammatory effects of RTX in the infarcted heart. Myocardial ischemia causes the production and release of several metabolites including bradykinin, prostaglandins and protons that stimulate cardiac sympathetic afferent nerve endings leading to increases in BP, HR and sympathetic nerve activity. As cardiac TRPV1-expressing sympathetic afferents also subserve a “dual sensory-efferent” function and release pro-inflammatory neuropeptides, we hypothesized that plasma extravasation and cardiac neuroinflammation follows myocardial ischemia. […] Inflammation in the infarct area may be due to tissue death whereas in peri-infarct and remote areas may be due to cardiac sympathetic afferent mediated neuroinflammation. This may explain why RTX prevented cardiac inflammation in non-infarct areas to a greater extent than in the infarct area.

IL-1 β = assay: Cardiac inflammatory cytokine IL-1β levels after MI; assay type: in vivo, rat; conditions: epicardial RTX during MI; 1 day or 1 week after MI
From the text: as §2

rats = conditions: subcutaneous and epidural administration; cited from earlier work
[5] = test system: nerve endings in the skin; conditions: topical administration at the nerve endings in the skin; cited from earlier work

T1 sequence (O35433 whole entry): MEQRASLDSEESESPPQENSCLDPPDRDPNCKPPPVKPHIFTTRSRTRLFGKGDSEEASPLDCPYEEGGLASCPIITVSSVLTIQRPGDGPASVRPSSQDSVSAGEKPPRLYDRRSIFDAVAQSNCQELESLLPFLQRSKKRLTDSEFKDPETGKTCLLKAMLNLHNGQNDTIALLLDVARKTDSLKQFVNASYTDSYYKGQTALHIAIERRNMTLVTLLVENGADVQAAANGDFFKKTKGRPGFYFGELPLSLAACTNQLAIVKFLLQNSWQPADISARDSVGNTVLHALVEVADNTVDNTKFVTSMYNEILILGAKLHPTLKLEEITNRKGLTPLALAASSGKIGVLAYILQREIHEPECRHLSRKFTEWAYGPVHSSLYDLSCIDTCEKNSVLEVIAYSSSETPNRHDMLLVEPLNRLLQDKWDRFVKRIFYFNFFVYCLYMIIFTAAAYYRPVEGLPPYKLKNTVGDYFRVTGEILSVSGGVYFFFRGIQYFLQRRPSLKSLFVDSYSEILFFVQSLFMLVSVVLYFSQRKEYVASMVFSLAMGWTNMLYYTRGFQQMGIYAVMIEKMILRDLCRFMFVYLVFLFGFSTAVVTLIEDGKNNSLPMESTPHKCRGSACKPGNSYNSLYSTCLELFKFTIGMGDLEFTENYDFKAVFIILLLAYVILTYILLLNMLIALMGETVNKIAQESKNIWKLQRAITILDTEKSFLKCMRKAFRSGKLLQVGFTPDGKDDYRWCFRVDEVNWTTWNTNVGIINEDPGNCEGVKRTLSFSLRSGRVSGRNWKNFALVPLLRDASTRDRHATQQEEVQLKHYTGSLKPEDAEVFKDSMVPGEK

For `C=C(C)[C@]12C[C@@H](C)[C@@]34O[C@](Cc5ccccc5)(O[C@@H]1[C@@H]3C=C(COC(=O)Cc1ccc(O)c(OC)c1)C[C@]1(O)C(=O)C(C)=C[C@@H]41)O2` [RTX, resiniferatoxin], the “TRPV1 immunoreactivity in the epicardium” value ([1]; 1 week, 4-6 weeks and 9-11 weeks after epicardial RTX 50 μg/ml) was “absent”, the “duration of nearly complete ablation of TRPV1-expressing cardiac nerve endings on the surface of the rat heart” value ([1]; epicardial RTX 50 μg/ml, preliminary experiments) was “more than 10 weeks” and the “difference in ejection fraction or fractional shortening” value ([2]; 2 weeks and 6 weeks after MI, CHF+RTX vs CHF+vehicle) was “no significant difference”. For the same compound, the DAP ([2]; CHF + RTX (n = 25), mean ± SE) was 90.8 ± 2.2 mmHg, the Heart weight ([2]; CHF + RTX (n = 25), epicardial RTX 50 μg/ml at coronary ligation, 9-11 weeks post-MI, mean ± SE) was 1650 ± 49 mg and the HR ([2]; CHF + RTX (n = 25), mean ± SE) was 348.3 ± 5.5 bpm. The HW/BW ([2]; CHF + RTX (n = 25), mean ± SE) was 3.8 ± 0.1 mg/g, the LVEDP ([2]; CHF + RTX (n = 25), mean ± SE) was 8.3 ± 0.7 mmHg and the MAP ([2]; CHF + RTX (n = 25), mean ± SE) was 101.3 ± 2.1 mmHg. The Infarct size ([2]; CHF + RTX (n = 25), mean ± SE) was 39.1 ± 1.2 %, the dp/dtmax ([2]; CHF + RTX (n = 25), mean ± SE) was 5446 ± 173 and the dp/dtmin ([2]; CHF + RTX (n = 25), mean ± SE) was −4643 ± 149. For the same compound, the SAP ([2]; CHF + RTX (n = 25), mean ± SE) was 120.8 ± 2.3 mmHg, the WLW/BW ([2]; CHF + RTX (n = 25), mean ± SE) was 5.1 ± 0.2 mg/g and the “MI-induced cardiac dilation (LV systolic and diastolic diameters and volumes)” value ([2]; CHF rats, echocardiography) was “significantly reduced”. For the same compound, the “increased LVEDP observed in CHF+vehicle rats” value ([2]; CHF+RTX rats) was “largely prevented”, the “decreased protein expression of in myocardium” value ([2]; CHF+RTX rats, western blot) was “partially reversed” and the blunted dp/dtmin ([2]; CHF+RTX vs CHF+vehicle rats) was “significantly increased”. For the same compound, the “difference in dp/dtmax at rest” value ([2]; CHF+RTX vs CHF+vehicle rats) was “no significant difference”, the “dp/dtmax response to isoproterenol (ISO) stimulation” value ([2]; CHF+RTX vs CHF+vehicle rats) was “significantly greater” and the “heart weight and lung weight-to-body weight ratios” value ([2]; CHF+RTX vs CHF+vehicle rats) was “significant decrease”. The “difference in infarct size” value ([2]; CHF+vehicle vs CHF+RTX rats) was “no significant difference”, the ejection fraction decrease ([2]; RTX treated rats (summary)) was “less” and the Infarct size ([2]; Sham + RTX (n = 20)) was 0%. For the same compound, the DAP ([2]; Sham + RTX (n = 20), mean ± SE) was 92.8 ± 3.2 mmHg, the Heart weight ([2]; Sham + RTX (n = 20), epicardial RTX 50 μg/ml, 9-11 weeks, mean ± SE) was 1430 ± 30 mg and the HR ([2]; Sham + RTX (n = 20), mean ± SE) was 362.0 ± 6.8 bpm. It also gave an HW/BW ([2]; Sham + RTX (n = 20), mean ± SE) of 3.3 ± 0.1 mg/g, an LVEDP ([2]; Sham + RTX (n = 20), mean ± SE) of 4.8 ± 0.4 mmHg and an MAP ([2]; Sham + RTX (n = 20), mean ± SE) of 105.0 ± 3.1 mmHg. For the same compound, the dp/dtmax ([2]; Sham + RTX (n = 20), mean ± SE) was 8601 ± 224, the dp/dtmin ([2]; Sham + RTX (n = 20), mean ± SE) was −8088 ± 196 and the SAP ([2]; Sham + RTX (n = 20), mean ± SE) was 128.8 ± 2.8 mmHg. For the same compound, the WLW/BW ([2]; Sham + RTX (n = 20), mean ± SE) was 4.5 ± 0.1 mg/g, the “differences in cardiac morphological, echocardiographic or hemodynamic parameters” value ([2]; sham+vehicle vs sham+RTX rats) was “no significant differences” and the “picrosirus red staining, alpha smooth muscle actin, fibronectin and TGF β receptor I expression” value ([3]; CHF rats) was “reduced”. For the same compound, the “picrosirus red staining, fibrotic markers and TGF β receptor I” value ([3]; sham rats) was “did not cause any significant change”, the “long-term (6 months) survival rates” value (post MI rats; CHF rats, epicardial RTX 50 μg/ml at the time of coronary ligation) was “markedly improved” and the “rats that died over a 6 month period” value (post MI rats; RTX treated post MI rats (vehicle: over 50%)) was “under 20%”. The “plasma extravasation following CSAR activation by epicardial capsaicin or bradykinin” value ([4]; chronic CSAR denervation by RTX) was “largely be abolished”, the “cardiac plasma extravasation after MI (Evans Blue area)” value ([4]; epicardial RTX at the time of coronary ligation, day 1 to more than 1 week after MI) was “almost completely abolished” and the “increased IL-1 β expression in peri-infarct and remote areas post MI” value (IL-1 β) was “markedly attenuated”. The “increased IL-1 β level in the infarct area” value (IL-1 β) was “partially prevented”, the “duration of thermal analgesia with no restoration of pain sensitivity” value (rats) was “over 7 days” and the “sensitivity to chemical pain stimulation” value [5] was “long-lasting insensitivity”.
